The values below come from patent US5220042A, “1,4-benzoquinone derivatives and benzene derivatives, and process for preparing the same” (priority 1984, dated 1993).

The target in assay [1] is T1, 5-lipoxygenase (Cavia porcellus, UniProt A0A286X958).
T1 construct: endogenous in cells; host or cells: guinea pig (Hartley strain) casein-elicited peritoneal exudate cells, intact cell suspension
T1 sequence (A0A286X958 1-674): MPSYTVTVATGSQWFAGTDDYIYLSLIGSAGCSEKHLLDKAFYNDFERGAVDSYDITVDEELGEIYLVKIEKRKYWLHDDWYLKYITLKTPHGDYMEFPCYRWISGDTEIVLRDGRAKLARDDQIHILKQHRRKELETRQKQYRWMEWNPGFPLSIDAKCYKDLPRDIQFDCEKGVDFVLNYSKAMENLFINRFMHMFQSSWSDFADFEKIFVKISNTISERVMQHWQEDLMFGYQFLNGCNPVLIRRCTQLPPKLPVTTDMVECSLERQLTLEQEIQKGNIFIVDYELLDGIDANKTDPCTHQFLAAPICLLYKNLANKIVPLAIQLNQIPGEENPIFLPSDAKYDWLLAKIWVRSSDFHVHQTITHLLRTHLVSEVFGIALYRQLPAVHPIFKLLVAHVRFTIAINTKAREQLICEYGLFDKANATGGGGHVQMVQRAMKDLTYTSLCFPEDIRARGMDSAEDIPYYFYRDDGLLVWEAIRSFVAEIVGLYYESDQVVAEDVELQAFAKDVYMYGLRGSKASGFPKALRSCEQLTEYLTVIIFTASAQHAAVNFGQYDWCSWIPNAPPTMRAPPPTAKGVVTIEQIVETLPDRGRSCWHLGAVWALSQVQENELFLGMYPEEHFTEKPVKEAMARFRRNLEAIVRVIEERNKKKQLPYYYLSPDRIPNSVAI
Nature of the assay: 5-Lipoxygenase inhibitory activity (conversion of 14C-arachidonic acid to 5-HETE) in guinea pig peritoneal exudate cells. The format is cell-based, guinea pig (Hartley strain). To be noted: read-out: inhibition ratio (%) of 5-lipoxygenase activity; for inhibition at 0.3 µM: concentration 3 × 10^-7 M; for inhibition at 1 µM: concentration 10^-6 M; for inhibition at 0.1 µM: concentration 10^-7 M. The gist of the method: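 Casein-elicited guinea pig peritoneal exudate cells (2.5×10^7 cells/ml, 1 mM CaCl2, 5.5 mM glucose) pretreated with 10^-5 M indomethacin, then compound 2 min at 30° C. Reaction started with 10 μm A23187 and 10 μm 14C-arachidonic acid, stopped after 3 min; metabolites separated by TLC and counted by liquid scintillation.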

Assay [2] concerns histamine release from lung fragments. Kind of assay: Inhibition of histamine release from sensitized guinea pig lung fragments. Format: cell-based, guinea pig (Hartley strain). To be noted: Cavia porcellus, read-out: Inhibition ratio (%) Histamine; for inhibition at 3 µM: Table 2, dose 3 μM; for inhibition at 30 µM: Table 2, dose 30 μM. Here is the method:
Inhibitory activities on the release of SRS-A and histamine of the present compounds were determined.
A male guinea pig (Hartley strain) (body weight: about 300 g) was sensitized by a method according to P. Anderson: "Int. Archs. Allergey appln. Immunol., Vol. 64, pages 249-258 (1981). Thus, 30 mg/kg of cyclophosphamide was intraperitoneally administered to the guinea pig, and 2 days after 1 microgram of ovalbumin (manufactured by Sigma Chemical Co., St. Louis, Mo. U. S. A.) together with 10 mg of aluminium hydroxide gel were intraperitoneally administered so as to have the animal sesitized.
50 Days after the sesitization, the animal was killed by exsanguination, and the lung was isolated from the animal and was perfused with 20 ml of Tyrode's solution, then immersed in an ice-cooled Tyrode's solution. The parenchyma of the lung was cut by using McIlwain-type tissue chopper to make it into fragments of lung having 2 mm square and the fragments were washed with Tyrode's solution. 400 Milligrams of sectiles of lung were suspended in 3.6 ml of Tyrode's solution, and this suspension was preincubated at 37° C. for 5 minutes, then 4 microliters of dimethyl sulfoxide solution of the test compound, in the case of control 4 microliters of dimethyl sulfoxide alone was added to the suspension. 5 Minutes after, 0.4 ml of 100 micrograms/ml of ovalbumin solution added so as to release SRS-A for 10 minutes. The suspension was ice-cooled and filtered through gauze, the filtrate was centrifuged at 2,000 rpm for 10 minutes and the supernatant was collected. The supernatant was stored in freezed state at -80° C. until bio-assay was conducted.
Amounts of SRS-A and histamine contained in the supernatant were determined by bio-assay using ileum of guinea pig.
A piece of the ileum (2-3 cm of length) positioned from 15-25 cm from the opening portion of ileocecum was isolated from a male guinea pig (Hartley strain) (body weight: 400-600 g) which was fasted for 24 hours. The piece of ileum was hanged vertically in a Magnus tube which was filled with 10 ml of Tyrode's solution containing 10^-7 M of atropine sulfate under air stream conditions. The isotonic contraction of the piece of the ileum was measured at 0.5 g of load by using an isotonic transducer "TD-112S" (manufactured by Nihon Koden Co., Ltd.). The measurements were carried out after the reaction to histamine of the piece of ileum was kept constant. Bioassay of histamine was measured by using the value of contraction shown in 30 seconds after the addition of the supernatant. Bioassay of on SRS-A was measured by using the value of contraction shown at 2 minutes after the addition of the supernatant in the presence of 10^-6 M of pyrilamine (manufactured by Sigma Chemical Co.), and compared with the standard curve of crude SRS-A released from the fragments of the lung.

Turning to `COC1=CC(=O)C(OC)=C(CCCCCC2=C(OC)C(=O)C=C(OC)C2=O)C1=O` [Test Compound No. 9, 2,2'-Pentamethylenebis(3,6-dimethoxy-1,4-benzoquinone)], in assay [1], the inhibition at 0.3 µM came out at 55%, the inhibition at 1 µM came out at 74% and the inhibition at 0.1 µM was found to be 38%. Further, in assay [2], the inhibition at 3 µM was -15% and the inhibition at 30 µM came out at 4.1%.
On to `COC1=CC(=O)C(OC)=C(CCCCCC#CCCCCCC2=C(OC)C(=O)C=C(OC)C2=O)C1=O` [Test Compound No. 16, 2,2'-(6-Dodecynylene)bis(3,6-dimethoxy-1,4-benzoquinone)], for which, in assay [1], the inhibition at 0.3 µM amounted to 84%, the inhibition at 1 µM was 87% and the inhibition at 0.1 µM was found to be 61%.
`COC1=CC(=O)C(OC)=C(CCCCCCCCCC2=C(OC)C(=O)C=C(OC)C2=O)C1=O` [Test Compound No. 13, 2,2'-Nonamethylenebis(3,6-dimethoxy-1,4-benzoquinone)]: in assay [1], the inhibition at 0.3 µM was 72%, the inhibition at 1 µM worked out at 91% and the inhibition at 0.1 µM was found to be 43%. Moreover, in assay [2], the inhibition at 3 µM was -2.7% and the inhibition at 30 µM was -14.9%.
